Measured values published in patent US20230183243A1, “HETEROARYL DERIVATIVES AND PHARMACEUTICAL COMPOSITION COMPRISING SAME AS ACTIVE INGREDIENT” (VORONOI INC., priority 2019, published 2023).

Legend:
[1] = test system: SHP-77; assay: Inhibition of proliferation of small cell lung cancer cells, CellTiter-Glo; format: cell-based; conditions: Homo sapiens, SHP77, 120 h; SHP-77, cultured for 5 days
Procedure: Specifically, the following test was performed to evaluate the inhibitory activity of the compound according to the present invention against the cell proliferation in the SCLC cells.
To check an inhibitory ability of cell growth in one SCLC cell line, a test was performed as follows. Cells were seeded in 180 μL of a culture broth at a density of 2,000 to 3,000 cells/well in a white clear bottom 96-well plate (Corning) according to the growth ability of each cell, and then cultured for 24 hours under conditions of 5% CO2 and 37° C. Thereafter, the compound was prepared by diluting a 10 mM stock solution three-fold with 100% DMSO at a total of 12 concentrations so that a peak concentration of the compound was in a range of 10 mM to 0.05 μM, and the diluted compound was then diluted in each cell culture medium so that a final concentration of the compound was in a range of 100 μM to 0.5 nM. 20 μL of a diluted solution diluted with a medium was added to the cell solution in which cells were seeded in the 96-well plate on the previous day so that a final concentration of the diluted solution was in a range of 10 μM to 0.05 nM. Each of the cells was cultured for 5 days. To check cell viability, a mixture provided in aCellTiter-Glo® Luminescent Cell Viability Assay Kit (Promega) was added to each of the cultured cell media, and cultured for another 10 minutes under a condition of 37° C. Then, a degree of luminescence (fluorescence) was measured. A degree of inhibition of the cell growth according to the treatment concentration of each of the compounds was calculated based on the fluorescence of the solvent control cells which were not treated with the compound. In this case, the concentration of each of the compounds inhibiting 50% of the cell growth was determined to be a GI50 (nM) value, and calculated using Prism (Version 7.01; GraphPad) software.

[2] = test system: MDA-MB-231 cells; assay: Inhibition of proliferation of triple-negative breast cancer cells, CellTiter-Glo; format: cell-based; conditions: Homo sapiens, 120 h; MDA-MB-231, cultured for 5 days
Method in brief: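 MDA-MB-231 cells pre-cultured 24 h (5% CO2, 37 °C), then exposed to compound for 5 days at 12 three-fold dilutions, final 10 μM to 0.05 nM. Viability read by CellTiter-Glo luminescence after 10 min at 37 °C; growth inhibition calculated relative to untreated solvent-control cells.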

[3] = biological target: T1, TTK (Homo sapiens, UniProt P33981); assay: TTK enzyme activity, ADP-Glo kinase assay; format: biochemical; set-up: purchased SignalChem T20-10G; conditions: purified human TTK, ATP 10 μM, 25° C., 2 hours
T1 sequence (P33981 1-857): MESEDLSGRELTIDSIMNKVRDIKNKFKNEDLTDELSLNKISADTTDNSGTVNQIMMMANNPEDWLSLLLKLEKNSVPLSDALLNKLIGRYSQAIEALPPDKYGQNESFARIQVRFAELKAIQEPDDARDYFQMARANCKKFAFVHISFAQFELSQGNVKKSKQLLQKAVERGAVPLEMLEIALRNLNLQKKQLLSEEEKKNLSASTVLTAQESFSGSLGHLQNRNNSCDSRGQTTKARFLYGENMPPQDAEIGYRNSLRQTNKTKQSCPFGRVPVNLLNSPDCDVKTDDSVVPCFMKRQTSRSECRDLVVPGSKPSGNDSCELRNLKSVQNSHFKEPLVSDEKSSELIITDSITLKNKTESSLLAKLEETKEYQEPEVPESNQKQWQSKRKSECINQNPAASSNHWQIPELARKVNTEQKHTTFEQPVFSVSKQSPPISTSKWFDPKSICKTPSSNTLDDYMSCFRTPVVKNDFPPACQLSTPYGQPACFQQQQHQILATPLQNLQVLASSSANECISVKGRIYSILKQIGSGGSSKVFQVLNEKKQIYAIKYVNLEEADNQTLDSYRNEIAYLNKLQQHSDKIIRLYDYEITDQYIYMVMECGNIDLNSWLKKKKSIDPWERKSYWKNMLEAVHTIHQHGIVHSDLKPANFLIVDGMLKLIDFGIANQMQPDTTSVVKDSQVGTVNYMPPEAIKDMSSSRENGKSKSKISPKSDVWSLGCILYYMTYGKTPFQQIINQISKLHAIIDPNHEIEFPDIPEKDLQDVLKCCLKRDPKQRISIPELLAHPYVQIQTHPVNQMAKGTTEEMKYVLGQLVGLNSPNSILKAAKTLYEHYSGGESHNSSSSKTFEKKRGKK
Method in brief: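 Purified human TTK (25 ng) incubated with 10 μM ATP and substrate (0.2 μg) for 2 h at 25 °C in Tris-HCl pH 7.4, MgCl2, BSA, DTT buffer. ADP formation read by ADP-Glo; inhibition calculated against untreated solvent control.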

SMILES	GI50 [1] [nM]	GI50 [2] [nM]	IC50 [3] [nM]
COc1cc(-c2ccnn2C)ccc1Nc1nc(NC2CCOCC2)c2c(C(F)(F)F)c[nH]c2n1 [Example 106, N^2-(2-methoxy-4-(1-methyl-1H-pyrazol-5-yl)phenyl)-N^4-(tetrahydro-2H-pyran-4-yl)-5-(trifluoromethy1)-7H-pyrrolo[2,3-d] pyrimidine-2,4-diamine]	< 100	< 100	50 to 200
COc1cc(-c2ccnn2C)c(F)cc1Nc1nc(NC2CCCCC2)c2c(C#N)c[nH]c2n1 [Example 105, 4-(cyclohexylamino)-2-((5-fluoro-2-methoxy-4-(1-methyl-1H-pyrazol-5-yl)phenyl)amino)-7H-pyrrolo[2,3-d] pyrimidine-5-carbonitrile]	100 to 1000	100 to 1000	50 to 200
N#Cc1c[nH]c2nc(Nc3ccc(N4CCCS4(=O)=O)c(F)c3)nc(NC3CCOCC3)c12 [Example 29]	100 to 1000	100 to 1000	< 50
COc1cc(-c2cnn(C)c2)c(F)cc1Nc1nc(NC2CCCC2)c2c(C#N)c[nH]c2n1 [Example 125, 4-(cyclopentylamino)-2-((5-fluoro-2-methoxy-4-(1-methyl-1H-pyrazol-4-yl)phenyl)amino)-7H-pyrrolo[2,3-d] pyrimidine-5-carbonitrile]	100 to 1000	< 100	< 50
COc1cc(-c2ccnn2C)ccc1Nc1nc(NC2CCCC2)c2c(Cl)c[nH]c2n1 [Example 127, 5-chloro-N^4-cyclopentyl-N^2-(2-methoxy-4-(1-methyl-1H-pyrazol-5-yl)phenyl)-7H-pyrrolo[2,3-d] pyrimidine-2,4-diamine]	< 100	< 100	50 to 200
COc1cc(-c2ccnn2C)ccc1Nc1nc(C2CC2)c2c(C#N)c[nH]c2n1 [Example 111, 4-cyclopropyl-2-((2-methoxy-4-(1-methyl-1H-pyrazol-5-yl)phenyl)amino)-7H-pyrrolo[2,3-d] pyrimidine-5-carbonitrile]	< 100	< 100	< 50
COc1cc(-c2ccnn2C)ccc1Nc1nc(NC2CCCC2)c2cc[nH]c2n1 [Example 113, N^4-cyclopentyl-N^2-(2-methoxy-4-(1-methyl-1H-pyrazol-5-yl)phenyl)-7H-pyrrolo[2,3-d] pyrimidine-2,4-diamine]	100 to 1000	100 to 1000	50 to 200
COc1cc(-n2ccnc2C)ccc1Nc1nc(NC2CCOCC2)c2c(C#N)c[nH]c2n1 [Example 93, 2-((2-methoxy-4-(2-methyl-1H-imidazol-1-yl)phenyl)amino)-4-((tetrahydro-2H-pyran-4-yl)amino)-7H-pyrrolo[2,3-d] pyrimidine-5-carbonitrile]	< 100	< 100	< 50
COc1cc(Nc2nc(NC3CCCC3)c3c(C#N)c[nH]c3n2)ccc1-c1c(C)noc1C [Example 139, 4-(cyclopentylamino)-2-((4-(3,5-dimethylisoxazol-4-yl)-3-methoxyphenyl)amino)-7H-pyrrolo[2,3-d] pyrimidine-5-carbonitrile]	< 100	100 to 1000	200 to 1000
COc1cc(-c2ccnn2C)c(F)cc1Nc1nc(NC2CCCC2)c2c(C#N)c[nH]c2n1 [Example 103, 4-(cyclopentylamino)-2-((5-fluoro-2-methoxy-4-(1-methyl-1H-pyrazol-5-yl)phenyl)amino)-7H-pyrrolo[2,3-d] pyrimidine-5-carbonitrile]	100 to 1000	100 to 1000	200 to 1000

Further lines, results first:

GI50 [1] [nM]	GI50 [2] [nM]	IC50 [3] [nM]	SMILES
< 100	< 100	< 50	N#Cc1c[nH]c2nc(Nc3cccc4c3OCCO4)nc(NC3CCOCC3)c12 [Example 170, 2-((2,3-dihydrobenzo[b][1,4]dioxin-5-yl)amino)-4-((tetrahydro-2H-pyran-4-yl)amino)-7H-pyrrolo[2,3-d] pyrimidine-5-carbonitrile]
< 100	< 100	< 50	COc1cc(N2CCCCS2(=O)=O)ccc1Nc1nc(NC2CCOCC2)c2c(C(F)(F)F)c[nH]c2n1 [Example 175, 2-(3-methoxy-4-((4-((tetrahydro-2H-pyran-4-yl)amino)-5-(trifluoromethyl)-7H-pyrrolo[2,3-d]pyrimidin-2-yl)amino)phenyl)-1,2-thiazinane 1,1-dioxide]
< 100	< 100	< 50	COc1cc(N2CCCCS2(=O)=O)ccc1Nc1nc(NC2CCOCC2)c2c(C#N)c[nH]c2n1 [Example 163, 2-((4-(1,1-dioxido-1,2-thiazinan-2-yl)-2-methoxyphenyl)amino)-4-((tetrahydro-2H-pyran-4-yl)amino)-7H-pyrrolo[2,3-d] pyrimidine-5-carbonitrile]
< 100	< 100	200 to 1000	COc1cc(Nc2nc(NC3CCCCC3)c3c(C#N)c[nH]c3n2)ccc1-c1c(C)noc1C [Example 140, 4-(cyclohexylamino)-2-((4-(3,5-dimethylisoxazol-4-yl)-3-methoxyphenyl)amino)-7H-pyrrolo[2,3-d] pyrimidine-5-carbonitrile]
< 100	< 100	< 50	COC[C@@H](C)Nc1nc(Nc2ccc(-n3ccnc3C)cc2OC)nc2[nH]cc(C#N)c12 [Example 167, (R)-2-((2-methoxy-4-(2-methyl-1H-imidazol-1-yl)phenyl)amino)-4-((1-methoxypropan-2-yl)amino)-7H-pyrrolo[2,3-d] pyrimidine-5-carbonitrile]
< 100	< 100	< 50	N#Cc1c[nH]c2nc(Nc3ccc(N4CCCC4=O)c4c3OCCO4)nc(NC3C[C@H]4CC[C@@H]3C4)c12 (stereo partly drawn) [Example 148, 4-(((1R,4S)-bicyclo[2.2.1]heptan-2-yl)amino)-2-((8-(2-oxopyrrolidin-1-yl)-2,3-dihydrobenzo[b][1,4]dioxin-5-yl)amino)-7H-pyrrolo[2,3-d] pyrimidine-5-carbonitrile]
< 100	< 100	< 50	Cn1cc(-c2ccc(Nc3nc(NC4C[C@H]5CC[C@@H]4C5)c4c(C#N)c[nH]c4n3)c3c2OCCO3)cn1 (stereo partly drawn) [Example 147, 4-(((1R,4S)-bicyclo[2.2.1]heptan-2-yl)amino)-2-((8-(1-methyl-1H-pyrazol-4-yl)-2,3-dihydrobenzo[b][1,4]dioxin-5-yl)amino)-7H-pyrrolo[2,3-d] pyrimidine-5-carbonitrile]
> 1000	> 1000	–	Cn1nccc1-c1ccc(Nc2nc(NC3COC3)c3c(C#N)c[nH]c3n2)c2c1OCCO2 [Example 160, 2-((8-(1-methyl-1H-pyrazol-5-yl)-2,3-dihydrobenzo[b][1,4]dioxin-5-yl)amino)-4-(oxetan-3-ylamino)-7H-pyrrolo[2,3-d] pyrimidine-5-carbonitrile]
> 1000	> 1000	–	COc1cc(-c2ccnn2C)ccc1Nc1nc(NC2COC2)c2c(C#N)c[nH]c2n1 [Example 161, 2-((2-methoxy-4-(1-methyl-1H-pyrazol-5-yl)phenyl)amino)-4-(oxetan-3-ylamino)-7H-pyrrolo[2,3-d] pyrimidine-5-carbonitrile]
